In patent US20260364101A1, “OLEUROPEIN IN THE MANAGEMENT OF CANCER” (FUNDACIÓN MIGUEL SERVET, priority 2023, published 2026):

Columns and labels:
[1] = tested on: CD4 T cells; assay: mixed lymphocyte reaction (MLR) with MDSCs as stimulator cells (FIG. 1c,d); assay type: cell-based, mouse
Protocol: MLR were carried out following standard procedures. Briefly, 100,000 MDSCs or TAMs from C57BL/6 mice were co-cultured in 96-well plates with 100,000 lymphocytes from BALB/c mice. Co-cultured cells were treated with 50 µM oleuropein and compared with control vehicle. After 5 days, T-lymphocyte activation, differentiation and proliferation were assessed by flow cytometry. T-cell activation and proliferation markers (Ki-67) and pro-inflammatory cytokine production (IL-2 and IFNγ) were evaluated by flow cytometry in CD4 and CD8 T cells as described before.
(§1) Surface and intracellular staining were carried out as described before with the following fluorochrome-conjugated antibody clones: AF488 anti-CD49d (R1-2), PE anti-CD4 (GK1.5), APCanti-CD8(53-6.7), brilliant Violet 510™ anti-I-A/I-E (M5/114.15.2,PE/Cyanine7anti-Ly-6G (1A8), and APC anti-CD80 (16-10A1) (Biolegend), FITC anti-IL-12 (C15.6) and BV421 anti-IL-2 (JES6-5H4) (BD Bioscience), APC-Vio® 770 anti-Ly-6C (REA796), PE REAfinity™ anti-F4/80 (REA126), and APC anti-CD68 (REA886) (Miltenyi), PerCP-Cyanine5.5 Anti-Human/Mouse CD11b (M1/70) (Tonbo), and AF488 anti-IFNγ (Clone XMG1.2) (BD Pharmigen). For human cells, it was used the following fluorochrome-conjugated antibodies: PerCP-Cy5.5-anti-CD11b (integrina alfa M) (M1/70), Violet Fluor 450 anti-CD14 antibody (61D3) (Tonbo), PE anti-CD115 (CSF-1R) (9-4D2-1E4) (Biolegend), PE-Cy™7 anti-CD11c (Clone B-ly6) (BD Bioscience), and APC anti-HLA-DR (REA517) (Miltenyi).

[2] = tested on: TAMCs; assay: apoptotic effect on myeloid cell populations; assay type: cell-based
[3] = tested on: myeloid cells from NSCLC patients; assay: myeloid cells from NSCLC patients treated ex vivo, flow cytometry (FIG. 6a); assay type: cell-based, human
Protocol: as §1
Data were collected using the FACSCanto Flow Cytometer (BD Biosciences) for ex vivo and in vitro experiments at Navarrabiomed Biomedical Research Center and Cyroflex LX flow cytometer (Beckman Counter). Data were analyzed with Flowjo.
Twenty-one patients diagnosed with locally advanced or metastatic NSCLC treated with the immune checkpoint inhibitors (ICI) pembrolizumab (anti-PD-1) were recruited for the study. The characteristics of the cohort under study have been described before, and this observational study was approved by the Ethics Committee of Clinical Investigations at the University Hospital of Navarre (reference number: PI_2020/115). 11 of the patients were chemoresistant. Blood samples from non-small cell lung cancer (NSCLC) patients were collected prior to treatment and before administration of each immunotherapy cycle.
PBMCs were isolated as described and grown in vitro for 24 h in TEXCMACs medium (Miltenyi Biotec). Myeloid cells were obtained by adherence to plastic for 24 h. Then, 50,000 myeloid cells were seeded per well with 50 µM oleuropein in 96-well plates and incubated for seven days.

[4] = oleuropein 50 μM, seven days, N=21 patients

## C/C=C1/[C@H](O[C@@H]2O[C@H](CO)[C@@H](O)[C@H](O)[C@H]2O)OC=C(C(=O)OC)[C@H]1CC(=O)OCCc1ccc(O)c(O)c1 [oleuropein]
[1]; oleuropein-reprogrammed MDSCs and TAMs
  T cell activation capacities: enhanced T cell activation capacities
[1]; particularly CD4 T cell activation
  immune cell activation: induces an immune cell activation
[1]; treated MDSCs as stimulators, 5 days
  CD4 T cell stimulation assessed by IFNγ and IL-2 production: potently stimulated
[2]
  apoptotic effect: does not provide any apoptotic effect
[3]; including anti-PD-1-based therapy resistance
  activation of myeloid cells of subjects suffering lung cancer: induced the activation of myeloid cells
[3]; [4]
  CD11b+ cells: increase
  expression of CD11c+HLA-DR: elevation
  expression of CD14+HLA-DR: elevation
  expression of CD115+HLA-DR: elevation
